Earlier results in article PMC5061580 (Journal of biomolecular structure & dynamics, 2016).

How the values were obtained:
[1] = tested on: Madin-Darby canine kidney cells (MDCK); details: in vitro cell culture monolayers; ref Makagiansar et al., 2001
[2] = tested on: blood-brain barrier; details: in-situ rat brain perfusion; ref Kiptoo et al., 2011; On et al., 2014

Ac-SHAVSS-NH2 [HAV6]
delivery of 14C-mannitol across MDCK monolayers [1]: enhances
brain delivery of 14C-mannitol and 3H-daunomycin [2]: increase the brain delivery
